Values quoted from earlier work in patent publication US20040192587A9, “Zinc formulations as a prophylactic treatment for the common cold” (priority 2002, published 2004).

Tests used:
[1] = system: rhinovirus common colds; conditions: large prophylactic oral doses, as much as 2 grams per day
[2] = system: common cold; conditions: tablet with about 23 mg elemental zinc dissolved in the mouth every two hours during 12 to 16 waking hours; sixty-five humans; untreated group 10.8 days

Compound	frequency of acquisition of rhinovirus common colds or amount of virus shedding [1]	duration of colds [2]
O=C1O[C@H]([C@@H](O)CO)C(O)=C1O [vitamin C]	have not altered	
zinc gluconate		3.9 days
